# Results: patent publication US20260374794A1, “COMPOUNDS TARGETING MUTANT OF P53” (JACOBIO PHARMACEUTICALS CO., LTD., priority 2022, published 2026)
# Key:
# p53(Y220C)_NUGC-3 = p53(Y220C)_NUGC-3 (Homo sapiens, UniProt P04637, Y220C); assay: Reporter gene assay (NUGC-3_P53_Luc cells); format: cell-based; details: 6 hours, 37 °C, luciferase, normalized to Ref-1a 10 μM, EC50 = concentration at 50% Activity, read-out: p53(Y220C)_NUGC-3 EC50
# Method: NUGC-3_P53_Luc single clonal cell line was established using pGL4.38[luc2P/p53 RE/Hygro] Vector (E365A, promega). NUGC-3_P53_Luc single clonal cells were cultured in 37 °C cell incubator before use. NUGC-3_P53_Luc cells were collected and washed twice with PBS to remove phenol red and then resuspended in medium to a proper concentration. Tested compound dilutions were transferred into 384 well assay plates (PerkinElmer). A desired number of cells was seeded into the assay plate and cultured for 6 hours at 37 °C cell incubator. Britelite plus Luciferase Assay Reagent were added into each well and the luminescence value was recorded on Envision. The percent of activity value of compounds treated wells was normalized between high control and low control. Wells containing cells and Ref-la (10 μM) served as high control, and wells containing cells and same percentage of DMSO served as low control. Activity value (%)=(Luminescence readoutCompound treated−Luminescence readoutLow control)/(Luminescence readoutHigh control−Luminescence readoutLow control)*100%. Then the data were analyzed either by fitting a 4-parameter logistic model or by Excel to calculate EC50 values and the EC50 was the concentration at 50% Activity on the curve.
# p53(Y220C) = target: T1, p53(Y220C) (Homo sapiens, UniProt P04637, Y220C); assay: In vitro DNA binding assay (HTRF), His-p53 Y220C (94-294) with biotinylated p53 consensus DNA; format: biochemical; details: HTRF; 27 °C; His-p53 Y220C (94-294) 2.5 nM; biotinylated DNA 10 nM; normalized to 2 μM Ref-1a; EC50 = concentration at 50% Activation; read-out: p53(Y220C) EC50
# T1 construct: His-p53 Y220C (94-294) protein
# How it was run: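 His-p53 Y220C (94-294), 2.5 nM, preincubated with compound and anti-His-Tb cryptate 15 min at 25 °C then 60 min at 27 °C; 10 nM biotinylated consensus DNA with streptavidin-d2 added for 60 min more (HEPES pH 7.4, 75 mM KCl). HTRF 665/620 ratio, normalized to 2 μM Ref-1a high control; EC50 from 4-parameter fit.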
# NUGC-3 (P53 Y220C) = assay: Cell viability assay (CellTiter-Glo); format: cell-based; details: NUGC-3 cells, 6 days, 37 °C
# Method: Cells were collected and counted. A desired number of cells was seeded into 96-well microplate and cultured in 37 °C cell incubator overnight. Compounds dissolved in cell culture medium were added into cell plate and cultured for 6 days. After balancing CellTiter-Glo reagent and cells at room temperature for 30 min, equal volume of CellTiter-Glo reagents was added to assay plate and shaken for 2 min for cell lysis. The cells were balanced at room temperature for 10 minutes and Luminescence signal was read using Envision. The percent of cell viability for compounds treated wells were normalized between High control and low control. Wells containing cell culture medium and same percentage DMSO served as Low control. Wells containing cells and same percentage DMSO served as High control. Cell viability (%)=(Luminescence readoutCompound treated−Luminescence readoutLow control)/(Luminescence readoutHigh control−Luminescence readoutLow control)*100%. Then the data were analyzed either by fitting a 4-parameter logistic model or by Excel to calculate IC50 values. And the IC50 was the concentration at […] Cell viability on the curve.
Compound,EC50 (p53(Y220C)_NUGC-3) [nM],EC50 (p53(Y220C)) [nM],"IC50 (NUGC-3 (P53 Y220C); Homo sapiens, 144 h) [nM]",IC50 (NUGC-3 (P53 Y220C)) [nM]
"COc1cc([S@@](=N)(=O)C2COC2)ccc1NCC#Cc1sc2c(N[C@@H]3CCN(C)C[C@@H]3F)cccc2c1CC(F)(F)F [Example 50, (S)-(4-((3-(7-(((3S,4R)-3-fluoro-1-methylpiperidin-4-yl)amino)-3-(2,2,2-trifluoroethyl)benzo[b]thiophen-2-yl)prop-2-yn-1-yl)amino)-3-methoxyphenyl)(imino)(oxetan-3-yl)-16-sulfanone]",76,25,1080,–
"COc1cc([S@](=N)(=O)C2CC2)ccc1NCC#Cc1sc2c(N[C@@H]3CCN(C)C[C@@H]3F)cccc2c1CC(F)(F)F [Example 53, (R)-cyclopropyl(4-((3-(7-(((3S,4R)-3-fluoro-1-methylpiperidin-4-yl)amino)-3-(2,2,2-trifluoroethyl)benzo[b]thiophen-2-yl)prop-2-yn-1-yl)amino)-3-methoxyphenyl)(imino)-16-sulfanone]",128,39,–,680
"COc1cc([S@@](=N)(=O)C2CC2)ccc1NCC#Cc1sc2c(N[C@@H]3CCN(C)C[C@@H]3F)cccc2c1CC(F)(F)F [Example 54, (S)-cyclopropyl(4-((3-(7-(((3S,4R)-3-fluoro-1-methylpiperidin-4-yl)amino)-3-(2,2,2-trifluoroethyl)benzo[b]thiophen-2-yl)prop-2-yn-1-yl)amino)-3-methoxyphenyl)(imino)-16-sulfanone]",143,58,–,1050
"CN1CC[C@@H](Nc2cccc3c(CC(F)(F)F)c(C#CCNc4ccc(P(C)(C)=O)c5c4C(=O)NC5)sc23)[C@@H](F)C1 [Example 55, 4-(dimethylphosphoryl)-7-((3-(7-(((3S,4R)-3-fluoro-1-methylpiperidin-4-yl)amino)-3-(2,2,2-trifluoroethyl)benzo[b]thiophen-2-yl)prop-2-yn-1-yl)amino)isoindolin-1-one]",196,31,1290,–
"[2H]C([2H])([2H])Oc1nc(P(C)(C)=O)ccc1NCC#Cc1sc2c(N[C@@H]3CCN(C)C[C@@H]3F)cccc2c1CC(F)(F)F [Example 56, (5-((3-(7-(((3S,4R)-3-fluoro-1-methylpiperidin-4-yl)amino)-3-(2,2,2-trifluoroethyl)benzo[b]thiophen-2-yl)prop-2-yn-1-yl)amino)-6-(methoxy-d3)pyridin-2-yl)dimethylphosphine oxide]",61,45,430,–
"COc1c(NCC#Cc2sc3c(N[C@@H]4CCN(C)C[C@@H]4F)cccc3c2CC(F)(F)F)ccc(P(C)(C)=O)c1OC [Example 57, (4-((3-(7-(((3S,4R)-3-fluoro-1-methylpiperidin-4-yl)amino)-3-(2,2,2-trifluoroethyl)benzo[b]thiophen-2-yl)prop-2-yn-1-yl)amino)-2,3-dimethoxyphenyl)dimethylphosphine oxide]",164,37,790,–
"COc1cc([S@@](C)(=N)=O)ccc1NCC#Cc1sc2c(N[C@H]3CCN(C)C[C@@H]3F)cccc2c1[C@@H](O)C(F)(F)F [Example 58, (S)-(4-((3-(7-(((3S,4S)-3-fluoro-1-methylpiperidin-4-yl)amino)-3-((R)-2,2,2-trifluoro-1-hydroxyethyl)benzo[b]thiophen-2-yl)prop-2-yn-1-yl)amino)-3-methoxyphenyl)(imino)(methyl)-16-sulfanone]",44,35,400,–
"COc1cc([S@@](C)(=N)=O)ccc1NCC#Cc1sc2c(N[C@@H]3CCN(C)C[C@H]3F)cccc2c1[C@@H](O)C(F)(F)F [Example 59, (S)-(4-((3-(7-(((3R,4R)-3-fluoro-1-methylpiperidin-4-yl)amino)-3-((R)-2,2,2-trifluoro-1-hydroxyethyl)benzo[b]thiophen-2-yl)prop-2-yn-1-yl)amino)-3-methoxyphenyl)(imino)(methyl)-16-sulfanone]",266,109,2060,–
"COc1cc([S@@](C)(=N)=O)ccc1NCC#Cc1sc2c(N[C@@H]3CCN(C)C[C@@H]3F)cccc2c1[C@@H](O)C(F)(F)F [Example 60, (S)-(4-((3-(7-(((3S,4R)-3-fluoro-1-methylpiperidin-4-yl)amino)-3-((R)-2,2,2-trifluoro-1-hydroxyethyl)benzo[b]thiophen-2-yl)prop-2-yn-1-yl)amino)-3-methoxyphenyl)(imino)(methyl)-16-sulfanone]",281,74,–,1800
"COc1cc([S@@](C)(=N)=O)ccc1NCC#Cc1sc2c(N[C@H]3CCN(C)C[C@H]3F)cccc2c1[C@@H](O)C(F)(F)F [Example 61, (S)-(4-((3-(7-(((3R,4S)-3-fluoro-1-methylpiperidin-4-yl)amino)-3-((R)-2,2,2-trifluoro-1-hydroxyethyl)benzo[b]thiophen-2-yl)prop-2-yn-1-yl)amino)-3-methoxyphenyl)(imino)(methyl)-16-sulfanone]",78,36,380,–
